This assay relates to Eimeria acervulina, Eimeria maxima, and Eimeria tenella. As to the kind of experiment: Second study: floor-pen broilers, cocci-challenge plus built-up litter, dried bacterial biomass in feed, 28 days. To be noted: column F of the chart. The format is in vivo, broiler chickens.

Consider `CC[C@@]1([C@@H]2O[C@@H]([C@H]3O[C@@](O)(CO)[C@H](C)C[C@@H]3C)C[C@@H]2C)CC[C@H]([C@]2(C)CC[C@]3(C[C@H](O)[C@@H](C)[C@@H]([C@@H](C)[C@@H](OC)[C@H](C)C(=O)O)O3)O2)O1` [Coban, Monensin], for which the “Lesion Score Ileum Day 28” value is 0.325.

The record behind these values is patent publication US20260069641A1, “GRAM-NEGATIVE BACTERIA FOR USE IN THE PREVENTION AND TREATMENT OF DISEASE IN POULTRY” (priority 2024, published 2026).
